According to EP0908457B1, “3-(1,2-benzisothiazol- and isoxazol-5-Y1)-2,4(1H,3H)-pyrimidinedione or thione and 3-(1,2-benzisothiazol- and isoxazol-5-y1)-4(3H)-pyrimidinone or thione herbicidal agents” (BASF AKTIENGESELLSCHAFT, priority 1997, dated 1999):
Where “and” joins values, the source holds several entries; their conditions need not be identical. Equal entries are not always repeated.

What was measured:
Format in all cases: in vivo
[1] = test system: Echinochloa oryzoides (Ard.) Fritsch.; test: Preemergence weed control under flooded paddy conditions, ECHORC (Watergrass (Calif.)); details: for ECHORC: herbicidal effect rating 0-9, three to four weeks after treatment; on herbicidal effect rating, ECHORC: meaning of each grade not given here
[2] = test system: Monochoria vaginalis, Presl.; test: Preemergence weed control under flooded paddy conditions, MOOVA (Monochoria); details: for MOOVA: preemergence weeds, flooded paddy, herbicidal effect rating 0-9, three to four weeks after treatment; on herbicidal effect rating, MOOVA: meaning of each grade not given here
[3] = test system: Sagittaria pygmaea, L.; test: Preemergence weed control under flooded paddy conditions, SAGPY (Arrowhead (Pygmaea)); further: meaning of each grade not given here
[4] = test system: Cyperus serotinus, Rottb.; test: Preemergence weed control under flooded paddy conditions, CYPSE (Flatsedge); details: preemergence weeds; for herbicidal effect rating, CYPSE: rated three to four weeks after treatment; for CYPSE: herbicidal effect rating 0-9, three to four weeks after treatment; on herbicidal effect rating, CYPSE: meaning of each grade not given here
[5] = test system: Cyperus iria; test: Preemergence weed control under flooded paddy conditions, CYPIR (Rice Flatsedge); details: preemergence weeds, flooded paddy; for herbicidal effect rating, CYPIR: rated three to four weeks after treatment; for CYPIR: herbicidal effect rating 0-9, three to four weeks after treatment; on herbicidal effect rating, CYPIR: meaning of each grade not given here
[6] = Rate 0.0320 kg/ha, preemergence weeds, flooded paddy, rated three to four weeks after treatment
[7] = Rate 0.0620 kg/ha, preemergence weeds, flooded paddy, rated three to four weeks after treatment
[8] = Rate 0.1250 kg/ha, preemergence weeds, flooded paddy, rated three to four weeks after treatment
[9] = Rate 0.2500 kg/ha, preemergence weeds, flooded paddy, rated three to four weeks after treatment
[10] = 0.0320 kg/ha, preemergence weeds, flooded paddy
[11] = 0.0620 kg/ha, preemergence weeds, flooded paddy
[12] = 0.1250 kg/ha, preemergence weeds, flooded paddy
[13] = 0.2500 kg/ha, preemergence weeds, flooded paddy

| Structure (SMILES) | MOOVA ([2]; 0.0620 kg/ha) | MOOVA ([2]; 0.1250 kg/ha) | MOOVA ([2]; 0.2500 kg/ha) | ECHORC [1, 10] | ECHORC [1, 11] | ECHORC [1, 12] | ECHORC [1, 13] | CYPSE ([4]; 0.0320 kg/ha) | CYPSE ([4]; 0.2500 kg/ha) | CYPIR ([5]; 0.0320 kg/ha) | CYPIR ([5]; 0.0620 kg/ha) | CYPIR ([5]; 0.1250 kg/ha) | CYPIR ([5]; 0.2500 kg/ha) | also measured |
| --- | --- | --- | --- | --- | --- | --- | --- | --- | --- | --- | --- | --- | --- | --- |
| Cc1ccc(OC(C)C(=O)[O-])c(-c2nsc3ccc(-n4c(=O)cc(C(F)(F)F)n(C)c4=O)cc23)c1.[Na+] (racemic) [Example 82, Sodium 2-{{2-{5-[3,6-dihydro-3-methyl-2,6-dioxo-4-(trifluoromethyl)-1(2H)-pyrimidinyl]-1,2-benzisothiazol-3-yl}-p-tolyl}oxy}propionate, DL-] | – | – | – | – | – | – | – | – | – | – | – | – | – | herbicidal effect rating, ECHORC ([1]; 0.0313 kg/ha, preemergence, flooded paddy, rated three to four weeks after treatment): 9.0; herbicidal effect rating, ECHORC ([1]; 0.0625 kg/ha, preemergence, flooded paddy, rated three to four weeks after treatment): 9.0; herbicidal effect rating, ECHORC ([1]; 0.1250 kg/ha, preemergence, flooded paddy, rated three to four weeks after treatment): 9.0; herbicidal effect rating, ECHORC ([1]; 0.2500 kg/ha, preemergence, flooded paddy, rated three to four weeks after treatment): 9.0 |
| COC(=O)[C@@H](C)Oc1ccc(C)cc1-c1nsc2ccc(-n3c(=O)cc(C(F)(F)F)n(C)c3=O)cc12 [Example 14, Methyl 2-{{2-{5-[3,6-dihydro-3-methyl-2,6-dioxo-4-(trifluoromethyl)-1(2H)-pyrimidinyl]-1,2-benzisothiazol-3-yl}-p-tolyl}oxy}propionate, (R)-] | – | – | – | – | – | – | – | – | – | – | – | – | – | herbicidal effect rating, MOOVA ([2]; in vivo): 9.0; herbicidal effect rating, ECHORC ([1]; in vivo): 7.5 and 6.5 and 5.0 and 4.0; herbicidal effect rating, SAGPY ([3]; in vivo): 0.0 |
| Cc1ccc(OCC(=O)NS(=O)(=O)CCl)c(-c2nsc3ccc(-n4c(=O)cc(C(F)(F)F)n(C)c4=O)cc23)c1 [Example 343] | – | – | – | – | – | – | – | – | – | – | – | – | – | herbicidal effect rating, ECHORC [1, 6]: 3.0; herbicidal effect rating, ECHORC [1, 7]: 6.0; herbicidal effect rating, ECHORC [1, 8]: 7.0; herbicidal effect rating, ECHORC [1, 9]: 9.0; herbicidal effect rating, CYPSE ([4]; Rate 0.0320 kg/ha): 0.0; herbicidal effect rating, CYPSE ([4]; Rate 0.0620 kg/ha): 3.0; herbicidal effect rating, CYPSE ([4]; Rate 0.1250 kg/ha): 4.0; herbicidal effect rating, CYPSE ([4]; Rate 0.2500 kg/ha): 6.0; herbicidal effect rating, SAGPY [3, 6]: 0.0; herbicidal effect rating, SAGPY [3, 7]: 0.0; herbicidal effect rating, SAGPY [3, 8]: 0.0; herbicidal effect rating, SAGPY [3, 9]: 3.0; herbicidal effect rating, CYPIR ([5]; Rate 0.0320 kg/ha): 0.0; herbicidal effect rating, CYPIR ([5]; Rate 0.0620 kg/ha): 0.0; herbicidal effect rating, CYPIR ([5]; Rate 0.1250 kg/ha): 0.0; herbicidal effect rating, CYPIR ([5]; Rate 0.2500 kg/ha): 6.0 |
| CC(OS(=O)(=O)C(C)C)c1nsc2ccc(-n3c(=O)cc(C(F)(F)F)n(C)c3=O)cc12 (stereo not shown) [Example 413, 2,4(1H,3H)-Pyrimidinedione, 3-[3-(1-hydroxyethyl)-1,2-benzisothiazol-5-yl]-1-methyl-6-(trifluoromethyl)-, 1-methylethanesulfonate (ester)] | 9.0 | 9.0 | 9.0 | 0.0 | 0.0 | 0.0 | 6.0 | 0.0 | 9.0 | 0.0 | 2.0 | 5.0 | 7.0 | MOOVA ([2]; 0.0320 kg/ha): 7.0; CYPSE ([4]; 0.0620 kg/ha): 3.0; CYPSE ([4]; 0.1250 kg/ha): 5.0 |
| CCCCS(=O)(=O)OC(C)c1nsc2ccc(-n3c(=O)cc(C(F)(F)F)n(C)c3=O)cc12 (stereo not shown) [Example 414, 2,4(1H,3H)-Pyrimidinedione, 3-[3-(1-hydroxyethyl)-1,2-benzisothiazol-5-yl]-1-methyl-6-(trifluoromethyl)-, butanesulfonate (ester)] | 7.0 | 7.0 | 7.0 | 0.0 | 0.0 | 2.0 | 7.0 | 0.0 | 9.0 | 0.0 | 2.0 | 6.0 | 9.0 | – |
